Measurements published in patent US20250257034A1, “INDOLE DERIVATIVES AS SEROTONERGIC AGENTS USEFUL FOR THE TREATMENT OF DISORDERS RELATED THERETO” (priority 2023, published 2025).
Like-named read-outs stand apart in the source and are kept apart here.

Columns and labels:
human 5-HT1A receptor = molecular target: T1, human 5-HT1A receptor (Homo sapiens, UniProt P08908); test: Human 5HT1A cAMP assay in CHO-K1 cells; type: cell-based; set-up: expressed in transfected cells
T1 sequence (P08908 1-422): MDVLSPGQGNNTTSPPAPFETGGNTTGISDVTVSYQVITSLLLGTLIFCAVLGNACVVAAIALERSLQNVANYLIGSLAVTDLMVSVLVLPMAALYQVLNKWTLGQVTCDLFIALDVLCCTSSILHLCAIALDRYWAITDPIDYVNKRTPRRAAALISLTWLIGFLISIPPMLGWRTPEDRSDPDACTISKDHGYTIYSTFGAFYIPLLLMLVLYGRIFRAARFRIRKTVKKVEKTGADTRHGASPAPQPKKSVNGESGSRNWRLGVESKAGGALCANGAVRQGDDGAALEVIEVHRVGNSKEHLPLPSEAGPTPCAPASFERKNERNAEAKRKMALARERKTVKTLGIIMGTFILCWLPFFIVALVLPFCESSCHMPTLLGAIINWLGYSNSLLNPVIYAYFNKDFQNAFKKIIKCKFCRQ
Protocol: Compound potency (EC50) and efficacy (Max response) against the human 5-HT1A receptor in stably transfected CHO-K1 cells was determined in a GPCR cell-based cAMP assay.
(§1) Cells were seeded in a total volume of 20 μL into white walled, 384-well microplates and incubated at 37° C. overnight before analysis. Prior to testing, cell plating media was exchanged with 10 μL of Assay buffer (HBSS+10 mM HE P E S). Briefly, intermediate dilution of sample stocks was performed to generate 4×sample in assay buffer. 5 μL of 4×sample+5 μL of 4×forskolin was added to cells and incubated at 37° C. for 30 minutes. Final assay vehicle concentration was 1%. The results are expressed as a percent efficacy relative to the maximum response of the control ligand (serotonin) in Table 27.
as §1, with “HEPES).” for “HE P E S).”, “4×sample +5” for “4×sample+5”, “56.” for “27.”

human 5-HT2A receptor = human 5-HT2A receptor (Homo sapiens, UniProt P28223); test: h-5HT2A β-arrestin reporter assay in U2OS cells; type: cell-based; set-up: expressed in transfected cells
Protocol: (§2) Compound potency (EC50) and efficacy (Max response) against the human 5-HT2A receptor in stably transfected U2OS cells was determined in a G protein-coupled receptors (GPCR) cell based p-arrestin reporter assay. Cells were seeded in a total volume of 20 μL into white walled, 384-well microplates and incubated at 37° C. overnight before analysis. For agonist determination, cells were incubated with sample to induce response. Intermediate dilution of sample stocks was performed to generate 5×sample in assay buffer. 5 μL of 5×sample was added to cells and incubated at 37° C. for 120 minutes. Final assay vehicle concentration was 1%.
as §2, with “5-HT2Areceptor” for “5-HT2A receptor”, “GPCR” for “G protein-coupled receptors (GPCR)”, “P-arrestin” for “p-arrestin”

5-HT2B receptor = 5-HT2B receptor (Homo sapiens, UniProt P41595); test: h-5HT2B positive allosteric modulator (PAM) assay in HEK293 cells; type: cell-based; set-up: expressed in transfected cells; host or cells: HEK293, stably transfected; conditions: for Emax (% of serotonin): PAM mode
Protocol: Compound potency (EC50) and efficacy (Max response) against the human 5-HT2B receptor in stably transfected HEK293 cells was determined in a GPC R cell-based assay.
(§3) For Positive Allosteric Modulator determination, cells were pre-incubated with sample followed by EC20 addition. Intermediate dilution of sample stocks was performed to generate 5×sample in assay buffer. 5 μL of 5×sample was added to cells and incubated at 37° C. for 10 minutes. 5 μL of agonist at 6×EC20 concentration was added and cells were incubated at 37° C. for 120 minutes. Final assay vehicle concentration was 1%. The results are expressed as a percent efficacy relative to the maximum response of the control ligand (serotonin) in Table 29.
as §3, with “58.” for “29.”

human 5-HT2C receptor = molecular target: T2, human 5-HT2C receptor (Homo sapiens, UniProt P28335); test: cell-based
T2 construct: expressed in transfected cells; host or cells: U2OS, stably transfected
T2 sequence (P28335 33-458): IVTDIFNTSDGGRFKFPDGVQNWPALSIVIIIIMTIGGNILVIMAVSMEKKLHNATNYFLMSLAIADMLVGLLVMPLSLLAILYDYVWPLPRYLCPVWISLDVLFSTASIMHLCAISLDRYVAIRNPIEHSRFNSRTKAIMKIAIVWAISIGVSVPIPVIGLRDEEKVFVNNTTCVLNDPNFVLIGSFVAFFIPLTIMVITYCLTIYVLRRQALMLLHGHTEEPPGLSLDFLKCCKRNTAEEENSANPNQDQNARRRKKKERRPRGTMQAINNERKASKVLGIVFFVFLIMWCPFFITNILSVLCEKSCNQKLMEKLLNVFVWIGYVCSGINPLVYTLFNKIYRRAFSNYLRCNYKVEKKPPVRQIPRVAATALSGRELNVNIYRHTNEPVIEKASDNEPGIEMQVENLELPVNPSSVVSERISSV

[1] = relative to maximum response of serotonin (Table 27)
[2] = relative to maximum response of serotonin (Table 56)
[3] = relative to maximum response of control ligand serotonin
[4] = β-arrestin reporter, U2OS cells
[5] = FLIPR calcium mobilization, U2OS cells
[6] = relative to maximum response of serotonin (Table 29)
[7] = calcium mobilization, U2OS cells (Table 30)
[8] = relative to maximum response of serotonin (Table 30)

Sequence of human 5-HT2A receptor (P28223 whole entry): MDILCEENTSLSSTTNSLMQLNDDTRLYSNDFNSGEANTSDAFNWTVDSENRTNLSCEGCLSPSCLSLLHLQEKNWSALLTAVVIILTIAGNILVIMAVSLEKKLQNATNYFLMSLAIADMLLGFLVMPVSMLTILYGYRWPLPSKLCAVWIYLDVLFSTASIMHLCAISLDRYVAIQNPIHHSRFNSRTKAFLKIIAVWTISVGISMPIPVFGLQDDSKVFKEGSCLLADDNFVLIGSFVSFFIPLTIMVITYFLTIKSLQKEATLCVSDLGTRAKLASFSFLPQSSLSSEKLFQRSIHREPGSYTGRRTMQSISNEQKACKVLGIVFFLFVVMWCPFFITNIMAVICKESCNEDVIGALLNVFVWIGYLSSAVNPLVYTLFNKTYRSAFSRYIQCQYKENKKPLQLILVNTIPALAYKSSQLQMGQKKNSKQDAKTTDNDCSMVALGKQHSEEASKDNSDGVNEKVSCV
Sequence of 5-HT2B receptor (P41595 whole entry): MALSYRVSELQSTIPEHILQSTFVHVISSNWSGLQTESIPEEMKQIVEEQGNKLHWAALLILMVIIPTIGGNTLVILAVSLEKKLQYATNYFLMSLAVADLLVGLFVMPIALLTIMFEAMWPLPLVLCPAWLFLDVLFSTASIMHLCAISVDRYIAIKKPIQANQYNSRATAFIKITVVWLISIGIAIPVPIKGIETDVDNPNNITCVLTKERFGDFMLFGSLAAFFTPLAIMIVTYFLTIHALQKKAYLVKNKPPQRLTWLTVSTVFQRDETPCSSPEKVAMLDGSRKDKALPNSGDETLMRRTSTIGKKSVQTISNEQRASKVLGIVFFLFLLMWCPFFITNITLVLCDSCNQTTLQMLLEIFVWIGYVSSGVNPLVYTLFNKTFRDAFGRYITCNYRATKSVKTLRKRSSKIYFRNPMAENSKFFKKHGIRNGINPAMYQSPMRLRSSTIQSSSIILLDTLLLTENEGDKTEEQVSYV

Structure (SMILES) | Emax (% of serotonin) (human 5-HT1A receptor; [1]) | Emax (% of serotonin) (human 5-HT1A receptor; [2]) | Emax (% of serotonin) (human 5-HT2A receptor; [3]) | Emax (% of serotonin) (human 5-HT2A receptor; [4]) | EC50 (human 5-HT2A receptor; β-arrestin reporter, U2OS cells, 120 min, read-out: EC50) [nM] | EC50 (human 5-HT2A receptor; β-arrestin reporter, U2OS cells, read-out: EC50) [nM] | EC50 (5-HT2B receptor) [µM] | Emax (% of serotonin) (5-HT2B receptor; HEK293 cells, relative to max response of serotonin) | EC50 (human 5-HT2C receptor; [5]) [nM] | Emax (% of serotonin) (human 5-HT2C receptor; [5]) | EC50 (human 5-HT1A receptor) [nM] | EC50 (human 5-HT2A receptor) [nM] | Emax (% of serotonin) (5-HT2B receptor; [6]) | EC50 (human 5-HT2C receptor; [7]) [nM] | Emax (% of serotonin) (human 5-HT2C receptor; [8])
CN(C)CCc1c[nH]c2ccccc12 [DMT] | 87.1 % of serotonin | 87.1 % of serotonin | 38.86 % of serotonin | 38.86 % of serotonin | 114 | 114 | – | – | – | – | – | – | – | – | –
COc1ccc2[nH]cc(CCN3CC[C@H](OC(F)F)C3)c2c1 [(S) I-67, (S)-3-(2-(3-(Difluoromethoxy)pyrrolidin-1-yl)ethyl)-5-methoxy-1H-indole] | – | 98.47 % of serotonin | – | 38.02 % of serotonin | – | – | > 10 | 0 % of serotonin | 2690 | 75.3 % of serotonin | 11.6 | 2070 | – | – | –
CCN(C)CCc1c[nH]c2ccc(SC)cc12 [Compound I-13, N-Ethyl-N-methyl-2-(5-(methylthio)-1H-indol-3-yl)ethan-1-amine] | 100.52 % of serotonin | – | 75.27 % of serotonin | – | – | – | > 10 | – | – | – | 9.06 | 59.5 | 0 % of serotonin | 2.89 | 92.77 % of serotonin
[2H]C([2H])([2H])N(CCc1c[nH]c2ccc(SC)cc12)C([2H])([2H])[2H] [Compound I-1, N,N-Bis(methyl-d3)-2-(5-(methylthio)-1H-indol-3-yl)ethan-1-amine] | 96.18 % of serotonin | – | 74 % of serotonin | – | – | – | > 10 | – | – | – | 11.1 | 58.4 | 0 % of serotonin | 2.37 | 98.89 % of serotonin
